Columns and labels:
[1] = Liver microsomal stability, dog; format: in vitro ADME; details: male, Beagle, pH 7.4, liver microsomes
Method: (§1) Mouse hepatic microsomes were isolated from pooled, perfused livers of male CD1 mice. Rat hepatic microsomes were isolated from pooled, perfused livers of male Sprague Dawley rats. Dog hepatic microsomes were isolated from pooled, perfused livers of male Beagle dogs. The batches of microsomes were tested for quality control using Testosterone, Propranolol and Caffeine as reference compounds.
(§2) A 10 mM stock solution of compound in DMSO is diluted three-fold in DMSO. This pre-diluted compound solution is then further diluted to 2 μM in a 50 mM phosphate buffer (PBS, pH 7.4) and pre-warmed at 37° C. This compound dilution is mixed F2 with microsomal/cofactor mix at 37° C. under shaking at 300 rpm. Final reaction conditions are: 100 μL incubation volume, 1 μM of test compound (in duplicate), <0.1% DMSO, 0.5 mg/mL microsomes, 0.6 U/mL Glucose-6-phosphate-dehydrogenase (G6PDH, Roche, 10127671001), 3.3 mM MgCl2 (Sigma, M2670), 3.3 mM glucose-6-phosphate (Sigma, G-7879) and 1.3 mM NADP+ (Sigma, N-0505).
(§3) After 60 min of incubation at 300 rpm and 37° C., the reaction was stopped with 3 volumes of STOP solution (acetonitrile/MeOH 2/1 with diclofenac as internal standard). For the time point zero, 3 volumes of STOP solution were added to the compound dilution before the microsome mix was added. Six time points over 60 minutes have been analyzed. The samples of all time points were centrifuged, filtered and the supernatant analyzed by LCMS/MS (systems API4000).
(§4) The instrument responses (peak areas/IS peak area) were referenced to the zero time-point samples (considered as 100%) in order to determine the percentage of compound remaining.
(§5) Testosterone (1 μM) and Propranolol and Caffeine (1 μM) were used as reference compounds, being unstable and stable compounds respectively. If the microsomal stability values for these controls are not in the range determined by the historical data, the assay is not validated. The solubility of the compound in the final test concentration in 50 mM buffer pH 7.4 is checked by microscope to indicate whether precipitation is observed or not. If a precipitate is observed, no data of microsomal stability is generated.

[2] = Liver microsomal stability, human; format: in vitro ADME; details: pH 7.4, liver microsomes
Method: (§6) Microsomal incubations were carried out in 96-well plates in 5 aliquots of 40 μL each (one for each time point). Liver microsomal incubation medium contained PBS (100 mM, pH 7.4), MgCl2 (3.3 mM), NADPH (3 mM), glucose-6-phosphate (5.3 mM), glucose-6-phosphate dehydrogenase (0.67 units/ml) with 0.42 mg of liver microsomal protein per ml. Control incubations were performed replacing the NADPH-cofactor system with PBS. Test compound (2 μM, final solvent concentration 1.6%) was incubated with microsomes at 37° C., shaking at 100 rpm. Incubations were performed in duplicates. Five time points over 40 minutes have been analyzed. The reactions were stopped by adding 12 volumes of 90% acetonitrile-water to incubation aliquots, followed by protein sedimentation by centrifuging at 5500 rpm for 3 minutes. […]. Supernatants were analyzed using the HPLC system coupled with tandem mass spectrometer (API3000 PE Sciex). Acquisition and analysis of the data were performed using Analyst 1.5.2 software (PE Sciex). The elimination constant (kel), half-life (t½) and intrinsic clearance (Clint) were determined in plot of […] versus time, using linear regression analysis:
as §2, §3, §4, §5

[3] = Liver microsomal stability, rat; format: in vitro ADME; details: male, pH 7.4, liver microsomes
Method: (§7) Mouse hepatic microsomes were isolated from pooled (50), perfused livers of male Balb/c mice. Rat hepatic microsomes were isolated from pooled (15), perfused livers of male Wistar rats. Isolation was performed according to the standard protocol (Hill, J. R. in Current Protocols in Pharmacology 7.8.1-7.8.11, Wiley Interscience, 2003). The batches of microsomes were tested for quality control using Imipramine, Propranolol and Verapamil as reference compounds.
as §6, §1, §2, §3, §4, §5

human AT2R fused to Cb23 = human AT2R fused to Cb23 (Homo sapiens, UniProt P50052); assay: Radioligand binding assay, displacement of 125I-[Sar1, Ile8]-Angiotensin II, hAT2R Cb23; details: displacement of 125I-[Sar1, Ile8]-Angiotensin II, human AT2R fused to Cb23, HEK-293 cell membrane preparations; read-out: Binding affinity on hAT2R_Cb23 IC50
How it was run: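 Membranes from HEK-293 cells expressing human AT2R fused to Cb23 were incubated with 0.05 nM 125I-[Sar1, Ile8]-Angiotensin II in 100 μL buffer (50 mM Tris, 5 mM MgCl2, 1 mM EDTA, 0.1% BSA, pH 7.4) for one hour at 25° C. Ligands were tested as eight-point dose-response curves in duplicate, with C21 and Angiotensin II as references.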

human AT1R = human AT1R (Homo sapiens (Human), UniProt P30556); assay: Counterscreen radioligand binding assay, displacement of 125I-[Sar1, Ile8]-Angiotensin II, hAT1R WT; details: for inhibition at 1 µM / inhibition at 10 µM: 125I-[Sar1, Ile8]-Ang II, semi-quantitative score; for inhibition at 1 µM: compound at 1 μM, read-out: % Displaced radioligand at 1 μM; for inhibition at 10 µM: compound at 10 μM, read-out: % Displaced radioligand at 10 μM; for IC50: HEK-293 cell membranes, read-out: Binding affinity On hAT1R IC50
How it was run: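 Compounds displaced 0.05 nM 125I-[Sar1, Ile8]-Ang II from human AT1R in HEK-293 membranes (1 h, 25° C; Tris/MgCl2/EDTA/BSA buffer, pH 7.4). Readout was filtration and scintillation counting, with non-specific binding set by 10 μM [Sar1]-Ang II. Values are % displacement at 1 μM and […], or IC50 from eight-point four-parameter fits.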

CYP2D6 = CYP2D6 (Homo sapiens (Human), UniProt P10635); assay: CYP inhibition, CYP2D6; format: in vitro ADME; details: CYP 2D6, ref. inhibitor conc. 0.5 μM
Method: The aim of this assay is to determine the inhibitory potential of a test compound. A major concern for drug-drug-interaction is cytochrome P450 inhibition. Reversible CYP inhibition was determined in human liver microsomes using specific probe substrates for human cytochrome P450 isoenzymes CYP1A2, 2C9, 2C19, 2D6 and 3A4. […]
A 10 mM stock solution of test compound is prepared in methanol. This stock is further serially diluted 1:3 in methanol and then added to mixture containing 50 mM potassium phosphate buffer pH7.4, human liver microsomes (BD Gentest) and probe substrate. After pre-warming 5 min at 37° C., the reaction is started by adding co-factor mix ([…] glucose-6-phosphate, 1.7 mg/mL NADP, 6 U/mL of glucose-6-phosphate dehydrogenase), resulting in a final concentration of test compound at 10 μM (2% MeOH).
Final concentrations of co-factor mix components are as follows: 1.56 mg/mL glucose-6-phosphate, 0.34 mg/mL NADP, 1.2 U/mL of glucose-6-phosphate dehydrogenase.
After incubation at 37° C., the reaction (aliquot of 50 μL) is terminated with 150 μL CH3CN:MeOH (2:1) solution with internal standard (warfarin for 2C9, diclofenac for all other tested isoforms). Samples are centrifuged and the supernatant fractions analyzed by LC-MS/MS.
The instrument responses (ratio of test compound and internal standard peak areas) are referenced to those for solvent controls (assumed as 100%) in order to determine the percentage reduction in probe metabolism. Percent of control activity vs. concentration plots are generated and fitted using GraphPad Prism software to generate IC50.

[4] = Liver microsomal stability, mouse; format: in vitro ADME; details: male, pH 7.4, liver microsomes
Method: as §7, §6, §1, §2, §3, §4, §5

[5] = Metabolic stability in hepatocytes, rat; format: in vitro ADME; details: hepatocytes (cryopreserved), read-out: Rat Clint (μL/min/10^6 cells)
Method: The aim of this assay is to determine the metabolic stability of the compound in hepatocytes (cryopreserved) of different species (mouse CD1, rat Sprague Dawley, dog Beagle). Low hepatocyte stability may result in the formation of unwanted metabolites, high clearance, and therefore is not desirable. The decrease in parent was assessed by measuring the percentage remaining by LC-MS/MS analysis. The batches of hepatocytes were tested for quality control using Testosterone, Umbelliferone and Caffeine as reference compounds.
A 10 mM stock solution of test compound in DMSO was first diluted in DMSO to 3 mM, and then in modified Krebs-Henseleit buffer (Sigma, K3753) to 5 μM. This compound dilution was added to a suspension of pooled cryopreserved hepatocytes (BioIVT) at 37° C. under gentle shaking. Final reaction conditions were: 1 μM of test compound, <0.1% DMSO, 0.5 million viable hepatocytes/mL, and 75 μL incubation volume.
After 0, 10, 20, 45, 90, 120 and 180 min of incubation, the reaction was terminated with 3 volumes of MeCN:MeOH (2:1) containing diclofenac as analytical internal standard. Samples were mixed, centrifuged and the supernatant analyzed by LC-MS/MS (systems API4000). The instrument responses (ratios of test compound and internal standard peak areas) were referenced to the zero time point samples (considered as 100%) in order to determine the percentage of compound remaining. Plots of percentage compound remaining were used to determine the intrinsic clearance in the hepatocyte incubations.
Testosterone (1 μM) and Umbelliferone (1 μM) and Caffeine (1 μM) were used as reference compounds, being unstable and stable compounds respectively. If the hepatocyte stability values for these controls are not in the range determined by the historical data, the assay is not validated.

Sequence of human AT1R (P30556 whole entry): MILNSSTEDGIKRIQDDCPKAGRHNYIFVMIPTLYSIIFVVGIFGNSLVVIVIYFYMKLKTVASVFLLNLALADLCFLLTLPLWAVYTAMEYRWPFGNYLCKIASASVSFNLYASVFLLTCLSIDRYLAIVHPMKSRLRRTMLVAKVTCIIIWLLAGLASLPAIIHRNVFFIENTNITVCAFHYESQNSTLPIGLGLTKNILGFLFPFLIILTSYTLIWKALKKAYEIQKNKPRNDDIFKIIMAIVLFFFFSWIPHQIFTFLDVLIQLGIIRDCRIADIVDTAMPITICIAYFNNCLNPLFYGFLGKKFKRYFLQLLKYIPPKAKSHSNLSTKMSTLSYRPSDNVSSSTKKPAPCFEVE
Sequence of human AT2R fused to Cb23 (P50052 whole entry, looked up, the tested form may be a part): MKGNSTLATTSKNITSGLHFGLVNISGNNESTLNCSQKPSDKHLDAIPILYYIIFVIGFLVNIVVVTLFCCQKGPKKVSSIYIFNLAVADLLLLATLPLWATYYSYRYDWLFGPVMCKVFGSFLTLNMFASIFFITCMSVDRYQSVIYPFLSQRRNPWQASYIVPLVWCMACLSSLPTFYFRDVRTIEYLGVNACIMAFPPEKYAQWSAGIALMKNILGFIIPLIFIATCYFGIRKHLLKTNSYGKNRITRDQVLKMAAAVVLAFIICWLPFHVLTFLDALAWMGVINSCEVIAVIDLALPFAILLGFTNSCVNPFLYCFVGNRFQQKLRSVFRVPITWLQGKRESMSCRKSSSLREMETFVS
Sequence of CYP2D6 (P10635 whole entry): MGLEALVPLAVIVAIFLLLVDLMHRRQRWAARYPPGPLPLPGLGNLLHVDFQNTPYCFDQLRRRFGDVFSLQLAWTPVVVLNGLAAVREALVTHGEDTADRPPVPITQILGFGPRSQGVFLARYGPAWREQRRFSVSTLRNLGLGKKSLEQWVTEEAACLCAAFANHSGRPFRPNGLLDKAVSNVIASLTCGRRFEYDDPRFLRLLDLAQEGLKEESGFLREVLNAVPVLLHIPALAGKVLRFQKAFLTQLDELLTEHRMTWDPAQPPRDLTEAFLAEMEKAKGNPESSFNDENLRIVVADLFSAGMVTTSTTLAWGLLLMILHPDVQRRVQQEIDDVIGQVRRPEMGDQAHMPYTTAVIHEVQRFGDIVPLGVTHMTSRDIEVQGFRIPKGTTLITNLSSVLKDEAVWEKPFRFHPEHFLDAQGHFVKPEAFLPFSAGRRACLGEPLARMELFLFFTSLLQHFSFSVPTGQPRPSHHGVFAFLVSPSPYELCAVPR

| SMILES | microsomal CLint at 1 µM [1] | microsomal CLint [2] | microsomal CLint [3] | IC50 (human AT2R fused to Cb23) | inhibition at 1 µM (human AT1R) | inhibition at 10 µM (human AT1R) | microsomal CLint [4] | IC50 (human AT1R) | hepatocyte CLint [5] | inhibition at 25 min, 0.5 µM (CYP2D6) |
| --- | --- | --- | --- | --- | --- | --- | --- | --- | --- | --- |
| C=C[C@H]1C[N@@]2CC[C@H]1C[C@@H]2[C@@H](O)c1ccnc2ccc(OC)cc12 [quinidine, reference compound] | – | – | – | – | – | – | – | – | – | 87.3% |
| CC(C)Cc1ccc(-c2nn[nH]n2)c(N2CCN(Cc3nc4ccccc4s3)CC2)c1 [Compound A-48, 2-[[4-[5-isobutyl-2-(2H-tetrazol-5-yl)-phenyl]piperazin-1-yl]methyl]-1,3-benzothiazole] | – | 32 µL/min/mg | 13 µL/min/mg | 628 nM | < 30% | 30 to 50% | 14 µL/min/mg | 27800 nM | – | – |
| CC(C)Cc1cc(F)c(-c2nn[nH]n2)c(N2CC(C)N(Cc3cccnn3)C(C)C2)c1 (stereo not drawn) [Compound A-184, 3-[[4-[3-fluoro-5-isobutyl-2-(2H-tetrazol-5-yl)phen-yl]-2,6-dimethyl-piperazin-1-yl]-methyl]pyridazine] | – | 18 µL/min/mg | 19 µL/min/mg | 0.893 nM | < 30% | < 30% | – | 33600 nM | 2 µL/min/1e6 cells | – |
| CC(C)Cc1cc(F)c(-c2nn[nH]n2)c(N2CC3CCC(C2)N3Cc2cccnn2)c1 [Compound A-190, 3-[3-fluoro-5-isobutyl-2-(2H-tetrazol-5-yl)phen-yl]-8-(pyridazin-3-ylmethyl)-3,8-diaza-bicyclo[3.2.1]octane] | – | – | – | 1350 nM | < 30% | < 30% | – | – | – | – |
| CC(C)Cc1ccc(-c2nn[nH]n2)c(N2CCN(Cc3nc4ccccc4s3)CC2)n1 [Compound A-148, 2-[[4-[6-isobutyl-3-(2H-tetrazol-5-yl)-2-pyridyl]piperazin-1-yl]methyl]-1,3-benzothiazole] | – | – | – | 6240 nM | < 30% | < 30% | – | – | – | – |

Further lines, with some results ahead:

| microsomal CLint at 1 µM [1] | microsomal CLint [2] | microsomal CLint [3] | IC50 (human AT2R fused to Cb23) | inhibition at 1 µM (human AT1R) | inhibition at 10 µM (human AT1R) | microsomal CLint [4] | IC50 (human AT1R) | hepatocyte CLint [5] | SMILES | inhibition at 25 min, 0.5 µM (CYP2D6) |
| --- | --- | --- | --- | --- | --- | --- | --- | --- | --- | --- |
| < 11.7 µL/min/mg | 16.5 µL/min/mg | 22.3 µL/min/mg | 8.75 nM | < 30% | < 30% | – | – | – | COc1ccnc(CN2CCN(c3cc(CC(C)C)cc(F)c3-c3nn[nH]n3)C[C@@H]2C)c1 [Compound A-227, (2S)-4-[3-fluoro-5-isobutyl-2-(2H-tetrazol-5-yl)phenyl]-1-[(4-methoxy-2-pyridyl)methyl]-2-methyl-piperazine] | – |
| < 11.7 µL/min/mg | 97.6 µL/min/mg | 28.3 µL/min/mg | 14.9 nM | < 30% | < 30% | – | – | – | Cc1cccnc1CN1CCN(c2cc(CC(C)C)cc(F)c2-c2nn[nH]n2)C[C@@H]1C [Compound A-228, (2S)-4-[3-fluoro-5-isobutyl-2-(2H-tetrazol-5-yl)phenyl]-2-methyl-1-[(3-methyl-2-pyridyl)methyl]piperazine] | – |
| < 11.7 µL/min/mg | 21.6 µL/min/mg | 24.8 µL/min/mg | 7.98 nM | < 30% | < 30% | – | – | – | Cc1ccnc(CN2CCN(c3cc(CC(C)C)cc(F)c3-c3nn[nH]n3)C[C@@H]2C)c1 [Compound A-229, (2S)-4-[3-fluoro-5-isobutyl-2-(2H-tetrazol-5-yl)phenyl]-2-methyl-1-[(4-methyl-2-pyridyl)methyl]piperazine] | – |

Source: patent US20240368133A1, “Compounds for the Treatment of Pain, in Particular, Neuropathic Pain, and/or Other Diseases or Disorders that are Associated with AT2R and/or AT2R Mediated Signaling” (Confo Therapeutics N.V., priority 2021, published 2024)
